# Test results reported in BindingDB's records for doi:10.1021/jm00093a008 (Technical University of Denmark, 1992).
# Experiment: Concentration inhibiting Clostridium histolyticum collagenase.
row,SMILES,IC50 [nM]
1,CC[C@@]1(O)C[C@H](O[C@H]2C[C@H](N(C)C)[C@H](O[C@H]3C[C@H](O)[C@H](O[C@H]4CCC(=O)[C@H](C)O4)[C@H](C)O3)[C@H](C)O2)c2c(cc3c(c2O)C(=O)c2c(O)cccc2C3=O)[C@H]1C(=O)OC [ACLACINOMYCIN A],9900

# Experiment: as above
# Remark: another data set of the same source
row,IC50 [nM],SMILES
1,370,COC1C(O[C@@H]2c3c(cc4c(c3O)C(=O)c3c(O)cccc3C4=O)C(=O)[C@@](C)(O)[C@H]2OC)OC(C)C(O)C1O (stereo not given in full)
2,3000,COC1C(O[C@@H]2c3c(cc4c(c3O)C(=O)c3c(O)cccc3C4=O)C(=O)[C@](C)(O)[C@H]2OC)OC(C)C(O)C1O (stereo not given in full)
3,19000,CO[C@H]1[C@H](O)c2c(cc3c(c2O)C(=O)c2c(O)cccc2C3=O)C(=O)[C@@]1(C)O
4,670,COC1C(C)OC(O[C@@H]2c3c(cc4c(c3O)C(=O)c3c(O)cccc3C4=O)C(=O)[C@@](C)(O)[C@H]2OC)C(OC)C1OC (stereo not given in full)

# More lines, now with the values behind:
row,SMILES,IC50 [nM]
1,COC1C(O[C@@H]2c3c(cc4c(c3O)C(=O)c3c(O)c(N(C)C)cc(N(C)C)c3C4=O)C(=O)[C@@](C)(O)[C@H]2OC)OC(C)C(O)C1O (stereo not given in full),> 100000
2,COC1C(O[C@@H]2c3c(cc4c(c3O)C(=O)c3c(O)cccc3C4=O)C(=O)[C@@](C)(O)[C@H]2OC)OC(C)C(O)C1O[Si](C)(C)C(C)(C)C (stereo not given in full),17000
3,COC1C(O[C@@H]2c3c(cc4c(c3O)C(=O)c3c(ccc(N(C)C)c3O)C4=O)C(=O)[C@@](C)(O)[C@H]2OC)OC(C)C(O)C1O (stereo not given in full),2000
4,CCOP(=O)(OCC)O[C@]1(C)C(=O)c2cc3c(c(O)c2[C@@H](OC2OC(C)C(O)C(O)C2OC)[C@@H]1OC)C(=O)c1c(O)cccc1C3=O (stereo not given in full),220
5,COC1C(O[C@@H]2c3c(cc4c(c3O)C(=O)c3c(O)cccc3C4=O)C(=O)[C@@](C)(O)[C@H]2OC)OC(C)C(OC(C)=O)C1OC(C)=O (stereo not given in full),> 100000
